Measured values from patent US20110269625A1, “Synergistic insecticidal mixtures” (Bayer CropScience AG, priority 2008, published 2011).

How the values were obtained:
Format in all cases: in vivo
[1] = system: green peach aphid (Myzus persicae); assay: Myzus persicae test (spray treatment of infested cabbage leaves)
Excerpt: (§1) The expected action for a given combination of two active ingredients can be calculated according to S. R. Colby, Weeds 15 (1967), 20-22) as follows:
(§2) • X is the kill rate, expressed in % of the untreated control, using the active ingredient A at an application rate of m g/ha or in a concentration of m ppm, • Y is the kill rate, expressed in % of the untreated control, using the active ingredient B at an application rate of n g/ha or in a concentration of n ppm, • E is the kill rate, expressed in % of the untreated control, using the active ingredients A and B at application rates of m and n g/ha or in a concentration of m and n ppm, then is
(§3) If the actual insecticidal kill rate is greater than that calculated, the kill rate of the combination is superadditive, i.e. there is a synergistic effect. In this case, the actually observed kill rate must be greater than the value calculated from the above formula for the expected kill rate (E).
Solvent: 7 parts by weight of dimethylformamide Emulsifier: 2 parts by weight of alkylaryl polyglycol ether
(§4) To produce an appropriate active ingredient formulation, 1 part by weight of active ingredient is mixed with the stated amounts of solvent and emulsifier, and the concentrate is diluted with emulsifier-containing water to the desired concentration.
Cabbage leaves (Brassica oleracea) severely infested by the green peach aphid (Myzus persicae) are treated by spraying with the active ingredient formulation in the desired concentration.
(§5) After the desired time, the kill rate in % is determined 100% means that all of the aphids have been killed; 0% means that none of the aphids have been killed. The kill rates determined are entered into Colby's formula.

[2] = system: larvae of the mustard beetle (Phaedon cochleariae); assay: Phaedon cochleariae larvae test (sprayed cabbage leaves populated with larvae); details: 4 ppm, spray
Excerpt: as §1, §2, §3
Solvent: 7 parts by weight of dimethylformamide Emulsifier: 2 parts by weight of alkyl aryl polyglycol ether
as §4
Cabbage leaves (Brassica oleracea) are treated by spraying with the active ingredient formulation of the desired concentration and populated with larvae of the mustard beetle (Phaedon cochleariae) while the leaves are still moist.
After the desired time, the kill rate in % is determined 100% means that all beetle larvae have been killed; 0% means that none of the beetle larvae have been killed. The kill rates determined are entered into Colby's formula.

[3] = system: cotton aphid (Aphis gossypii); assay: Aphis gossypii test (spray treatment of infested cotton plants)
Excerpt: as §1, §2, §3
Solvent: 7 parts by weight of dimethylformamide Emulsifier: 2 parts by weight of alkylaryl polyglycol ether […]
as §5

For C/C(=N\C#N)N(C)Cc1ccc(Cl)nc1 [acetamiprid], the “Kill rate in % after 6 days” value ([1]; 0.8 ppm) was 0% and the “Kill rate in % after 6 days” value [2] was 0%.
For CC1(C)[C@H](C=C(Cl)Cl)[C@H]1C(=O)OCc1c(F)c(F)cc(F)c1F [transfluthrin], the “Kill rate in % after 6 days” value ([3]; 0.16 ppm) was 0%, the “Kill rate in % after 1 d” value ([1]; 0.16 ppm) was 0% and the “Kill rate in % after 6 days” value ([1]; 0.8 ppm) was 0%. For the same compound, the “Kill rate in % after 6 days” value [2] was 0%.
For N#C/N=C1\SCCN1Cc1ccc(Cl)nc1 [thiacloprid], the “Kill rate in % after 6 days” value ([3]; 0.8 ppm) was 25%, the “Kill rate in % after 1 d” value ([1]; 0.8 ppm) was 25% and the “Kill rate in % after 6 days” value [2] was 0%.
